Measurements taken from PMC5580309, “Molecular-scale features that govern the effects of O-glycosylation on a carbohydrate-binding module” (Chemical Science, 2015).
Bridge positions count the residues as written; N and C are the ends. Peptide text beside a SMILES is read from it. * marks the point of attachment. αMan = OC[C@H]1O[C@H](*)[C@@H](O)[C@@H](O)[C@@H]1O

Biological target: T1, thermolysin (Bacillus thermoproteolyticus, UniProt P00800)
T1 sequence (P00800 233-548): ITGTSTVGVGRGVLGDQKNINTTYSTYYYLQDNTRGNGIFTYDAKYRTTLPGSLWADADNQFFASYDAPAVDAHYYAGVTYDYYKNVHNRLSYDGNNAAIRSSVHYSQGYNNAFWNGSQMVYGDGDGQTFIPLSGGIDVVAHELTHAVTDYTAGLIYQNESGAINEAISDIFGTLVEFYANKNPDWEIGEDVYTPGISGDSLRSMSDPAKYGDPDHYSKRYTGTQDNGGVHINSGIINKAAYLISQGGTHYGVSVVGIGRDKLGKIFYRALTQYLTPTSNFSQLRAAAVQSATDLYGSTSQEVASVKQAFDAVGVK
Experiment: Proteolytic stability: half-life to thermolysin degradation
Assay type: in vitro ADME
Conditions: for Change in Half-Life to Thermolysin Degradation: glyco-variant minus its corresponding unglycosylated CBM (e.g. 2-1), *** not used in the correlation plot; for half-life: thermolysin (isolated protease), thermolysin degradation, mean of three trials ± SD, procedures as described previously (ESI ref 18)
Description: All error bars reported are standard deviations of data achieved from three separate trials.
cellulose that were determined in accordance with our procedures as described previously 18.
The results are presented as mean of three trials ± SD. *Denotes an averaged value of four trials

| Compound | Change in Half-Life to Thermolysin Degradation [min] | half-life [min] |
| --- | --- | --- |
| CC[C@H](C)[C@@H]1NC(=O)CNC(=O)CNC(=O)[C@@H](NC(=O)[C@H](CCC(N)=O)NC(=O)CNC(=O)[C@H](Cc2ccc(O)cc2)NC(=O)[C@H](C)NC(=O)[C@H](CO[C@H]2O[C@H](CO)[C@@H](O)[C@H](O)[C@@H]2O)NC(=O)[C@H](CCC(N)=O)NC(=O)[C@@H](N)[C@@H](C)O)CSSC[C@@H]2NC(=O)[C@H]([C@@H](C)O)NC(=O)[C@H]([C@@H](C)O)NC(=O)CNC(=O)[C@H](CO)NC(=O)[C@H](C)NC(=O)[C@H](CSSC[C@@H](C(=O)N[C@@H](CC(C)C)C(=O)O)NC(=O)[C@H](CCC(N)=O)NC(=O)[C@H](CO)NC(=O)[C@H](Cc3ccc(O)cc3)NC(=O)[C@H](Cc3ccc(O)cc3)NC(=O)[C@@H]3CCCN3C(=O)[C@H](CC(N)=O)NC(=O)[C@H](CC(C)C)NC(=O)[C@H](C(C)C)NC(=O)[C@H](CCC(N)=O)NC2=O)NC(=O)[C@H](C(C)C)NC(=O)[C@H]([C@@H](C)O)NC(=O)[C@@H]2CCCN2C(=O)CNC(=O)[C@H](CO)NC(=O)[C@H](Cc2ccc(O)cc2)NC(=O)CNC1=O [CBM variant 9] (H-TQS(αMan)AYGQCGGIGYSGPTVCASGTTCQVLNPYYSQCL-OH; disulfide 8-25, 19-35) | 25.8 | 39 ± 3 |
| CC[C@H](C)[C@@H]1NC(=O)CNC(=O)CNC(=O)[C@@H](NC(=O)[C@H](CCC(N)=O)NC(=O)CNC(=O)[C@H](C)NC(=O)[C@H](Cc2c[nH]cn2)NC(=O)[C@H](CO)NC(=O)[C@H](CCC(N)=O)NC(=O)[C@@H](N)[C@@H](C)O)CSSC[C@@H]2NC(=O)[C@H]([C@@H](C)O)NC(=O)[C@H]([C@@H](C)O)NC(=O)CNC(=O)[C@H](CO)NC(=O)[C@H](C)NC(=O)[C@H](CSSC[C@@H](C(=O)N[C@@H](CC(C)C)C(=O)O)NC(=O)[C@H](CCC(N)=O)NC(=O)[C@H](CO)NC(=O)[C@H](Cc3ccc(O)cc3)NC(=O)[C@H](Cc3ccc(O)cc3)NC(=O)[C@@H]3CCCN3C(=O)[C@H](CC(N)=O)NC(=O)[C@H](CC(C)C)NC(=O)[C@H](C(C)C)NC(=O)[C@H](CCC(N)=O)NC2=O)NC(=O)[C@H](C(C)C)NC(=O)[C@H]([C@@H](C)O)NC(=O)[C@@H]2CCCN2C(=O)CNC(=O)[C@H](CO)NC(=O)[C@H](Cc2ccc(O)cc2)NC(=O)CNC1=O [CBM variant 10] (H-TQSHAGQCGGIGYSGPTVCASGTTCQVLNPYYSQCL-OH; disulfide 8-25, 19-35) |  | 4.8 ± 1.2 |
| CC[C@H](C)[C@@H]1NC(=O)CNC(=O)CNC(=O)[C@@H](NC(=O)[C@H](CCC(N)=O)NC(=O)CNC(=O)[C@H](C)NC(=O)[C@H](Cc2c[nH]cn2)NC(=O)[C@H](CO[C@H]2O[C@H](CO)[C@@H](O)[C@H](O)[C@@H]2O)NC(=O)[C@H](CCC(N)=O)NC(=O)[C@@H](N)[C@@H](C)O)CSSC[C@@H]2NC(=O)[C@H]([C@@H](C)O)NC(=O)[C@H]([C@@H](C)O)NC(=O)CNC(=O)[C@H](CO)NC(=O)[C@H](C)NC(=O)[C@H](CSSC[C@@H](C(=O)N[C@@H](CC(C)C)C(=O)O)NC(=O)[C@H](CCC(N)=O)NC(=O)[C@H](CO)NC(=O)[C@H](Cc3ccc(O)cc3)NC(=O)[C@H](Cc3ccc(O)cc3)NC(=O)[C@@H]3CCCN3C(=O)[C@H](CC(N)=O)NC(=O)[C@H](CC(C)C)NC(=O)[C@H](C(C)C)NC(=O)[C@H](CCC(N)=O)NC2=O)NC(=O)[C@H](C(C)C)NC(=O)[C@H]([C@@H](C)O)NC(=O)[C@@H]2CCCN2C(=O)CNC(=O)[C@H](CO)NC(=O)[C@H](Cc2ccc(O)cc2)NC(=O)CNC1=O [CBM variant 11] (H-TQS(αMan)HAGQCGGIGYSGPTVCASGTTCQVLNPYYSQCL-OH; disulfide 8-25, 19-35) | 6 | 10.8 ± 1.8 |
